The values below come from US20240316047A1, “INHIBITORS OF RNA HELICASE DHX9 AND USES THEREOF” (ACCENT THERAPEUTICS, INC., priority 2022, published 2024).

In the assay the target is Human recombinant DHX9 protein (Homo sapiens (Human), UniProt Q08211). The experiment in a line: DHX9 ATPase assay (ADP-Glo). The format is biochemical. The note with it: for IC50: read-out: DHX9 Biochemical Inflection Point. On the technique in general: In ADP-Glo the light output rises with the ADP produced.
Sequence of Human recombinant DHX9 protein (Q08211 whole entry): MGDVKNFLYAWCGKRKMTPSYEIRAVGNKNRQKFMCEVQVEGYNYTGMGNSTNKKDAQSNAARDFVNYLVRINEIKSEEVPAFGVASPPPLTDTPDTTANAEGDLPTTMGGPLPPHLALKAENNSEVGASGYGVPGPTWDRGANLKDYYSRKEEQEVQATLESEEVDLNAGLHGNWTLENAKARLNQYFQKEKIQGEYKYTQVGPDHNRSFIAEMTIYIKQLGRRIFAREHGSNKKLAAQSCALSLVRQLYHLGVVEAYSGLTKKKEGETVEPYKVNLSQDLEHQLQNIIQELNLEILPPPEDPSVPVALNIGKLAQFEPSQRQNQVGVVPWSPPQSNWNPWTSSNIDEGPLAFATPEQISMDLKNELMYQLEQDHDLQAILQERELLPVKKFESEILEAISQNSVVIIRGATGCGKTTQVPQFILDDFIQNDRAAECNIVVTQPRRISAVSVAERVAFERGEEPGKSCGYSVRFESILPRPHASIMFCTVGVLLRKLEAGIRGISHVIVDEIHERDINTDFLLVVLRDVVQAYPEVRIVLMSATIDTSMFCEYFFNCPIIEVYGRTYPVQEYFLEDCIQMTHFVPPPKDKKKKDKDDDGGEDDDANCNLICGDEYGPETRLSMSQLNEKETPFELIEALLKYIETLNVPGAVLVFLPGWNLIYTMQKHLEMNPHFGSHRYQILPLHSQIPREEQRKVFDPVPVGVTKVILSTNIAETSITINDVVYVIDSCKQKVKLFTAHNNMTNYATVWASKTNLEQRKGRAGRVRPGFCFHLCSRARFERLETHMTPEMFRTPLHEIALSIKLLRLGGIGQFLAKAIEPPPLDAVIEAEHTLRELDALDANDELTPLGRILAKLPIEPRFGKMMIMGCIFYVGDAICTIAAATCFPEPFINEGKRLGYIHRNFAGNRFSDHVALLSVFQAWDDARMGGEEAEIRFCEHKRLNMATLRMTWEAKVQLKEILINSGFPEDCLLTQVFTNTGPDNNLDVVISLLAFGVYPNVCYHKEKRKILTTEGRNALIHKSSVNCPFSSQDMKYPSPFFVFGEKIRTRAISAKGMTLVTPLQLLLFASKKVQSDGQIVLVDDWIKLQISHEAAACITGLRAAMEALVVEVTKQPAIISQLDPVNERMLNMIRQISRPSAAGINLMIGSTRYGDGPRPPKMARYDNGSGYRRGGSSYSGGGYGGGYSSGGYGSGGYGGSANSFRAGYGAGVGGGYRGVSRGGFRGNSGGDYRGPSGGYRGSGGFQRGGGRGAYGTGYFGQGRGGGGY

As to `CCn1nc(C(=O)Nc2cc(F)cc(NS(C)(=O)=O)c2)cc1C` [Example 119, 1-ethyl-N-(3-fluoro-5-(methylsulfonamido)phenyl)-5-methyl-1H-pyrazole-3-carboxamide], the “DHX9 Biochemical Max Inhibition” value came to 82.1% and the IC50 amounted to 1160 nM.

On to `CS(=O)(=O)Nc1cc(Cl)cc(NC(=O)c2cc(-c3ccccc3)c(CO)s2)c1` [Example 120, N-(3-chloro-5-(methylsulfonamido)phenyl)-5-(hydroxymethyl)-4-phenylthiophene-2-carboxamide], for which the “DHX9 Biochemical Max Inhibition” value amounted to 72.5% and the IC50 came to 8.9 nM.

`CS(=N)(=O)Nc1cc(Br)cc(NC(=O)c2cc(-c3ccccn3)cs2)c1` (stereo not shown) [Example 121, N-(3-bromo-5-(methylsulfonoamidimidamido)phenyl)-4-(pyridin-2-yl)thiophene-2-carboxamide]: the “DHX9 Biochemical Max Inhibition” value is recorded as 63.5% and the IC50 came to 40.6 nM.

`Cc1cccnc1-c1csc(C(=O)Nc2cc(Br)cc(NS(C)(=N)=O)c2)c1` (stereo not shown) [Example 122]: the “DHX9 Biochemical Max Inhibition” value was 67.7% and the IC50 came to 28.8 nM.

`Cc1sc(C(=O)Nc2cc(Br)cc(NS(C)(=N)=O)c2)cc1-c1ccccn1` (stereo not shown) [Example 123]: the “DHX9 Biochemical Max Inhibition” value is given as 72.8% and the IC50 came out at 14.8 nM.

In the case of `CS(=O)(=O)Nc1cc(Cl)cc(NC(=O)c2csc(-c3ccccc3)c2)c1` [Example 124, N-(3-chloro-5-(methylsulfonamido)phenyl)-5-phenylthiophene-3-carboxamide], the “DHX9 Biochemical Max Inhibition” value came to 53.8% and the IC50 is 604 nM.

Turning to `CS(=O)(=O)Nc1cc(Cl)cc(NC(=O)c2coc(-c3ccccc3)c2)c1` [Example 125], the “DHX9 Biochemical Max Inhibition” value came to 56.7% and the IC50 was 330 nM.

In the case of `CS(=O)(=O)Nc1cc(Cl)cc(NC(=O)c2cnn(CCCO)c2)c1` [Example 126, N-(3-chloro-5-(methylsulfonamido)phenyl)-1-(3-hydroxypropyl)-1H-pyrazole-4-carboxamide], the “DHX9 Biochemical Max Inhibition” value is on record as 64.5% and the IC50 worked out at 182 nM.

`CS(=O)(=O)Nc1cc(Cl)cc(NC(=O)c2cnn(CCO)c2)c1` [Example 127]: the “DHX9 Biochemical Max Inhibition” value was determined as 66.4% and the IC50 came out at 138 nM.

As to `CS(=O)(=O)Nc1cc(Cl)cc(NC(=O)c2cnn(C3CC4(COC4)C3)c2)c1` [Example 128], the “DHX9 Biochemical Max Inhibition” value came to 57.3% and the IC50 is 173 nM.

On to `Cc1cc(C(=O)Nc2cc(Cl)cc(NS(C)(=O)=O)c2)cn1-c1ccccc1` [Example 129, N-(3-chloro-5-(methylsulfonamido)phenyl)-5-methyl-1-phenyl-1H-pyrrole-3-carboxamide], for which the “DHX9 Biochemical Max Inhibition” value was 66.4%.

As for `Cc1cccnc1-n1cc(C(=O)Nc2cc(Cl)cc(NS(C)(=O)=O)c2)cc1C` [Example 130], the “DHX9 Biochemical Max Inhibition” value stood at 70.4% and the IC50 was 39.6 nM.

On to `CS(=O)(=O)Nc1cc(Cl)cc(NC(=O)c2cnn(C3CCOCC3)c2)c1` [Example 131, N-(3-chloro-5-(methylsulfonamido)phenyl)-1-(tetrahydro-2H-pyran-4-yl)-1H-pyrazole-4-carboxamide], for which the “DHX9 Biochemical Max Inhibition” value is 55.9% and the IC50 amounted to 151 nM.

Turning to `CCc1cn2cc(C(=O)Nc3cc(Cl)cc(NS(C)(=O)=O)c3)ccc2n1` [Example 132], the “DHX9 Biochemical Max Inhibition” value is given as 55.1% and the IC50 amounted to 295 nM.

Take `CCc1nc2ccc(C(=O)Nc3cc(Cl)cc(NS(C)(=O)=O)c3)cn2c1N(C)C` [Example 133]: the “DHX9 Biochemical Max Inhibition” value stood at 41.8% and the IC50 amounted to 13600 nM.

With `CS(=O)(=O)Nc1cc(Cl)cc(NC(=O)c2ccc3nccn3c2)c1` [Example 134], the “DHX9 Biochemical Max Inhibition” value is recorded as 40% and the IC50 came to 808 nM.

Regarding `CS(=O)(=O)Nc1cc(Cl)cc(NC(=O)c2cccc3ccoc23)c1` [Example 135], the “DHX9 Biochemical Max Inhibition” value turned out to be 44.6% and the IC50 came out at 1070 nM.

Turning to `CC(C)(C)OC(=O)N1CCC(n2cc(C(=O)Nc3cc(Cl)cc(NS(C)(=O)=O)c3)cn2)CC1` [Example 136], the “DHX9 Biochemical Max Inhibition” value turned out to be 59.6%.

Take `Cn1nc(C(=O)Nc2cc(Cl)cc(NS(C)(=O)=O)c2)cc1-c1ccccc1OCc1ccccc1` [Example 138, 5-(2-(benzyloxy)phenyl)-N-(3-chloro-5-(methylsulfonamido)phenyl)-1-methyl-1H-pyrazole-3-carboxamide]: the “DHX9 Biochemical Max Inhibition” value stood at 42.6% and the IC50 is 13500 nM.

`Cn1nc(-c2ccccc2OCc2ccccc2)cc1C(=O)Nc1cc(Cl)cc(NS(C)(=O)=O)c1` [Example 139]: the “DHX9 Biochemical Max Inhibition” value is 59.1% and the IC50 turned out to be 6650 nM.

Turning to `Cn1nc(C(=O)Nc2cc(Cl)cc(NS(C)(=O)=O)c2)cc1-c1ccccn1` [Example 140], the “DHX9 Biochemical Max Inhibition” value came to 63.3% and the IC50 worked out at 300 nM.

For `Cn1nc(-c2ccccn2)cc1C(=O)Nc1cc(Cl)cc(NS(C)(=O)=O)c1` [Example 141], the “DHX9 Biochemical Max Inhibition” value is given as 54.9% and the IC50 worked out at 442 nM.

On to `CC(c1ccccc1)n1cc(C(=O)Nc2cc(Cl)cc(NS(C)(=O)=O)c2)cn1` (stereo not shown) [Example 142, N-(3-chloro-5-(methylsulfonamido)phenyl)-1-(1-phenylethyl)-1H-pyrazole-4-carboxamide], for which the “DHX9 Biochemical Max Inhibition” value is 62% and the IC50 is 514 nM.

In the case of `Cc1cccnc1-c1cc(C(=O)Nc2cc(Cl)cc(NS(C)(=O)=O)c2)cn1CC(F)F` [Example 143, N-(3-chloro-5-(methylsulfonamido)phenyl)-1-(2,2-difluoroethyl)-5-(3-methylpyridin-2-yl)-1H-pyrrole-3-carboxamide], the “DHX9 Biochemical Max Inhibition” value is reported as 66.8%.

With `CC(C)(C)OC(=O)N1CC2(CC(n3cc(C(=O)Nc4cc(Cl)cc(NS(C)(=O)=O)c4)cn3)C2)C1` [Example 144, tert-butyl 6-(4-((3-chloro-5-(methylsulfonamido)phenyl)carbamoyl)-1H-pyrazol-1-yl)-2-azaspiro[3.3]heptane-2-carboxylate], the “DHX9 Biochemical Max Inhibition” value came to 65.1% and the IC50 was 224 nM.

On to `CS(=O)(=O)Nc1cc(Cl)cc(NC(=O)c2cnn(C3CCNCC3)c2)c1` [Example 145, N-(3-chloro-5-(methylsulfonamido)phenyl)-1-(piperidin-4-yl)-1H-pyrazole-4-carboxamide], for which the “DHX9 Biochemical Max Inhibition” value is 67.9% and the IC50 was 58 nM.

For `CS(=O)(=O)Nc1cc(Cl)cc(NC(=O)c2cnn(C3CC4(CNC4)C3)c2)c1` [Example 146], the “DHX9 Biochemical Max Inhibition” value came out at 71.9% and the IC50 was determined as 30.4 nM.

Consider `CS(=O)(=O)Nc1cc(Cl)cc(NC(=O)c2cnn(-c3cc(N4CCNCC4)ccn3)c2)c1` [Example 147], for which the “DHX9 Biochemical Max Inhibition” value is reported as 76.5% and the IC50 was determined as 6.3 nM.

For the compound `CC(=O)N1CCN(c2ccnc(-n3cc(C(=O)Nc4cc(Cl)cc(NS(C)(=O)=O)c4)cn3)c2)CC1` [Example 148, 1-(4-(4-acetylpiperazin-1-yl)pyridin-2-yl)-N-(3-chloro-5-(methylsulfonamido)phenyl)-1H-pyrazole-4-carboxamide], the “DHX9 Biochemical Max Inhibition” value was found to be 63.3% and the IC50 amounted to 18.5 nM.

In the case of `CC(C)C(=O)N1CCN(c2ccc(-n3cc(C(=O)Nc4cc(Cl)cc(NS(C)(=O)=O)c4)cn3)nc2)CC1` [Example 149, N-(3-chloro-5-(methylsulfonamido)phenyl)-1-(5-(4-isobutyrylpiperazin-1-yl)pyridin-2-yl)-1H-pyrazole-4-carboxamide], the “DHX9 Biochemical Max Inhibition” value is on record as 65.4% and the IC50 turned out to be 19.9 nM.

Take `Cn1cc(C(=O)Nc2cc(Cl)cc(NS(C)(=O)=O)c2)nc1-c1ccccc1` [Example 155, N-(3-chloro-5-(methylsulfonamido)phenyl)-1-methyl-2-phenyl-1H-imidazole-4-carboxamide]: the “DHX9 Biochemical Max Inhibition” value is 66.4% and the IC50 turned out to be 126 nM.

As to `Cc1cccnc1-c1nc(C(=O)Nc2cc(Cl)cc(NS(C)(=O)=O)c2)cn1C` [Example 156], the “DHX9 Biochemical Max Inhibition” value stood at 51.2% and the IC50 is 695 nM.

`Cn1cc(C(=O)Nc2cc(Cl)cc(NS(C)(=O)=O)c2)cc1N1CCCCC1=O` [Example 158, N-(3-chloro-5-(methylsulfonamido)phenyl)-1-methyl-5-(2-oxopiperidin-1-yl)-1H-pyrrole-3-carboxamide]: the “DHX9 Biochemical Max Inhibition” value came out at 76.5% and the IC50 came out at 34.5 nM.

Regarding `CS(=O)(=O)Nc1cc(Br)cc(NC(=O)c2cnn(-c3ccccc3CO)c2)c1` [Example 161, N-(3-bromo-5-(methylsulfonamido)phenyl)-1-(2-(hydroxymethyl)phenyl)-1H-pyrazole-4-carboxamide], the “DHX9 Biochemical Max Inhibition” value came to 44.9% and the IC50 worked out at 48.4 nM.

On to `CS(=O)(=O)Nc1cc(Br)cc(NC(=O)c2cnn(-c3ncccc3N)c2)c1` [Example 162, 1-(3-aminopyridin-2-yl)-N-(3-bromo-5-(methylsulfonamido)phenyl)-1H-pyrazole-4-carboxamide], for which the “DHX9 Biochemical Max Inhibition” value came out at 60.5% and the IC50 was 19.7 nM.

Consider `CS(=O)(=O)Nc1cc(Cl)cc(NC(=O)c2cc(C(=O)Nc3ccccc3)cs2)c1` [Example 166, N2-(3-chloro-5-(methylsulfonamido)phenyl)-N4-phenylthiophene-2,4-dicarboxamide], for which the “DHX9 Biochemical Max Inhibition” value came out at 64% and the IC50 amounted to 28.5 nM.

For the compound `Cn1cc(C(=O)Nc2cc(Cl)cc(NS(C)(=O)=O)c2)cc1-c1ncc(F)cn1` [Example 171, N-(3-chloro-5-(methylsulfonamido)phenyl)-5-(5-fluoropyrimidin-2-yl)-1-methyl-1H-pyrrole-3-carboxamide], the “DHX9 Biochemical Max Inhibition” value amounted to 61.8% and the IC50 turned out to be 14.5 nM.

Regarding `CCOc1cnc(-c2cc(C(=O)Nc3cc(Cl)cc(NS(C)(=O)=O)c3)cn2C)nc1` [Example 172], the “DHX9 Biochemical Max Inhibition” value is given as 72.4% and the IC50 worked out at 15.9 nM.
